Reference: patent US20110034384A1, “COMBINATION VEGFR2 THERAPY WITH mTOR INHIBITORS” (Bristol-Myers Squibb Company, priority 2007, published 2011)
“Also recorded” adds a separate entry of the source.

Key:
Type in all cases: in vivo, nude mice
[1] = tested on: Colo205 tumor; assay: Colo205 xenograft: Comp-I vs. Bevacizumab, Temsirolimus added at Day 9 (Example 3); details: for Day 14 (TV, mm^3) (Mean) / Day 14 (TV, mm^3) Average ± STDErr: Temsirolimus 10 mg/kg BIW added on Day 9 to Bevacizumab 10 mg/kg BIW, Comp-I 80 mg/kg TIW or vehicle (n = 4); for Day 1 (TV, mm^3) (Mean) / Day 1 (TV, mm^3) Average ± STDErr: i.p.; for Day 1 (TV, mm^3) (Mean) / Day 1 (TV, mm^3) Average ± STDErr / Day 8 (TV, mm^3) (Mean) / Day 8 (TV, mm^3) Average ± STDErr / Percentage of tumor growth inhibition: Bevacizumab 10 mg/kg BIW, Comp-I 80 mg/kg TIW; for Day 8 (TV, mm^3) (Mean) / Day 8 (TV, mm^3) Average ± STDErr: Day 8 (before Temsirolimus)
Experimental: (§1) Tumors were measured with calipers twice a week. Tumor volumes (mm^3) were calculated by the formula [π/6 (L×W^2)], where L represents the largest tumor diameter (mm) and W represents the smallest tumor diameter (mm). Tumor measurements were noted as absolute values. Animal body weights were determined weekly during the course of the experiment. Tumor Growth Inhibition (TGI) was calculated as the percent tumor growth of treated (T) groups from control group (vehicle, C). Tumor growth was calculated by subtracting initial tumor volume (at day 0) from the final tumor volume at the end of the experiment. TGI=(1−[T-T0]/[C-C0])*100.
Human Colo205 cells were injected subcutaneously into the flanks of nude mice. Mice were randomized and treatments initiated when tumors reached an average size of 411 mm^3. Comp-I and Bevacizumab were administered intraperitoneally to Colo-205 tumor bearing-mice in doses and schedules as indicated in Table 5. Temsirolimus (10 mg/kg, BIW) was added to Comp-I and Bevacizumab treatments on Day 9. Half the mice (n=4) in the vehicle group were initiated on torisel the same day and the other half (n=4) remained under vehicle treatment Both anti-angiogenic treatments reduced […] to similar levels by Day 14 (FIG. 5).

[2] = tested on: Colo205 tumor; assay: Colo205 xenograft: Comp-I, Temsirolimus and their combination (Example 1); details: for Colo205 tumor growth inhibition (in words): 21 days under treatment, FIG. 1, Table 2; for Tumor Volume Average: i.p., Comp-I 60 mg/kg TIW, Temsirolimus 20 mg/kg BIW, Combo 60/20 mg/kg TIW/BIW
Experimental: Human Colo205 cells were injected subcutaneously into the flanks of nude mice. Mice were randomized and treatments initiated when tumors reached an average size of 235 mm^3. Optimal doses of Comp-I (the VEGFR2 specific inhibitor represented by SEQ ID NO: 4) and Temsilorimus were administered intraperitoneally to Colo-205 tumor bearing-mice in doses and schedules as indicated in Table 1. Tumor growth was evaluated for 21 days under treatment (FIG. 1). Mice were taken off treatment after day 21 until day 57, with a continuous assessment of tumor growth (FIG. 2). Control was euthanized on Day 41. [table] Tumors were measured with calipers twice a week. Tumor volumes (mm^3) were calculated by the formula [π/6 (L×W^2)], where L represents the largest tumor diameter (mm) and W represents the smallest tumor diameter (mm). Tumor measurements were noted as absolute values. Animal body weights were determined weekly during the course of the experiment. Tumor Growth Inhibition (TGI) was calculated as the percent tumor growth of treated (T) groups from control group (vehicle, C). Tumor growth was calculated by subtracting initial tumor volume (at day 0) from the final tumor volume at the end of the experiment. TGI=(1−[T-T0]/[C-C0])*100.

[3] = tested on: Colo205 tumor; assay: Colo205 xenograft: Comp-I vs. Bevacizumab, Temsirolimus added at Day 17 (Example 2); details: for Day 22 (TV, mm3) (Mean) / Day 22 (TV, mm3) Average ± STDErr: Temsirolimus 10 mg/kg BIW added on Day 17 to Bevacizumab 10 mg/kg BIW, Comp-I 80 mg/kg TIW or vehicle (n = 4); for Day 1 (TV, mm3) (Mean) / Day 1 (TV, mm3) Average ± STDErr: i.p.; for Day 1 (TV, mm3) (Mean) / Day 1 (TV, mm3) Average ± STDErr / Day 19 (TV, mm3) (Mean) / Day 19 (TV, mm3) Average ± STDErr / Percentage of tumor growth inhibition: Bevacizumab 10 mg/kg BIW, Comp-I 80 mg/kg TIW; for Day 19 (TV, mm3) (Mean) / Day 19 (TV, mm3) Average ± STDErr: Temsirolimus 10 mg/kg BIW added on Day 17; for Day 19 (TV, mm3) (Mean) / Day 19 (TV, mm3) Average ± STDErr / Percentage of tumor growth inhibition: Day 19; for Percentage of tumor growth inhibition: Temsirolimus added on Day 17
Experimental: as §1
Human Colo205 cells were injected subcutaneously into the flanks of nude mice. Mice were randomized and treatments initiated when tumors reached an average size of 167 mm^3. Comp-I and Bevacizumab were administered intraperitoneally to Colo-205 tumor bearing-mice in doses and schedules as indicated in Table 4. Temsirolimus treatment (10 mg/kg, BIW) was initiated on Day 17 added to Comp-I and Bevacizumab treatments on Day 17. Half the mice (n=4) in the vehicle group were initiated on torisel the same day and the other half (n=4) remained under vehicle treatment. Both anti-angiogenic treatments reduced […] to similar levels by Day 22 (FIG. 4). Percentage of tumor growth inhibition was determined as follows: Day 19/Comp-I (89%), Day 19/Bevacizumab (87%).

[4] = tested on: HT1080 tumor; assay: HT1080 xenograft: Comp-I vs. Bevacizumab, Temsirolimus added at Day 23 (Example 4); details: for Day 1 (TV, mm^3) (Mean) / Day 1 (TV, mm^3) Average ± STDErr / Day 23 (TV, mm^3) (Mean) / Day 23 (TV, mm^3) Average ± STDErr: i.p.
Experimental: Human HT1080 cells were injected subcutaneously into the flanks of nude mice. Mice were randomized and treatments initiated when tumors reached an average size of 201 mm^3. Comp-I and Bevacizumab were administered intraperitoneally to HT1080 tumor bearing-mice in doses and schedules as indicated in Table 6. Temsirolimus (10 mg/kg, BIW) was added to Comp-I and Bevacizumab treatments on Day 23. Both anti-angiogenic treatments reduced […] as measured on Day 27 (FIG. 6).

[5] = Day 11, Temsirolimus 10 mg/kg BIW added on Day 9
[6] = Bevacizumab 5 mg/kg BIW, Comp-I 100 mg/kg TIW
[7] = QW groups: Bevacizumab 5 mg/kg QW, Comp-I 100 mg/kg QW

Molecule	Day 14 (TV, mm^3) (Mean) [1]	Day 14 (TV, mm^3) Average ± STDErr [1]	Colo205 tumor growth inhibition (in words) [2]	Tumor Volume Average ([2]; Day 1)	Tumor Volume Average ([2]; Day 5)	Tumor Volume Average ([2]; Day 8)	Tumor Volume Average ([2]; Day 11)	Tumor Volume Average ([2]; Day 14)	Tumor Volume Average ([2]; Day 19)	Tumor Volume Average ([2]; Day 21)	Day 22 (TV, mm3) (Mean) [3]	Day 22 (TV, mm3) Average ± STDErr [3]	Day 1 (TV, mm^3) (Mean) [1]	Day 1 (TV, mm^3) Average ± STDErr [1]	Day 8 (TV, mm^3) (Mean) [1]	Day 8 (TV, mm^3) Average ± STDErr [1]	Percentage of tumor growth inhibition ([1]; Day 8)	Percentage of tumor growth inhibition [1, 5]	Day 1 (TV, mm^3) (Mean) [4, 6]	Day 1 (TV, mm^3) Average ± STDErr [4, 6]	also measured
CO[C@H]1C[C@@H]2CC[C@@H](C)[C@@](O)(O2)C(=O)C(=O)N2CCCC[C@H]2C(=O)O[C@H]([C@H](C)C[C@@H]2CC[C@@H](OC(=O)C(C)(CO)CO)[C@H](OC)C2)CC(=O)[C@H](C)/C=C(\C)[C@@H](O)[C@@H](OC)C(=O)[C@H](C)C[C@H](C)/C=C/C=C/C=C/1C [Temsirolimus, temsirolimus]	821.1 mm^3	849.6 ± 106.6 mm^3	equally inhibited	237.19 mm^3	287.19 mm^3	313.73 mm^3	354.14 mm^3	378.44 mm^3	395.95 mm^3	422.42 mm^3	667.5 mm3	612.3 ± 99.5 mm3	–	–	–	–	–	–	–	–	–
Bevacizumab: anti-angiogenic treatment; Bevacizumab-mediated VEGF inhibition	458.9 mm^3	455.1 ± 36.2 mm^3	–	–	–	–	–	–	–	–	250.7 mm3	246.5 ± 21.2 mm3	(398.6) mm^3	413.0 ± 32.9 mm^3	(511.8) mm^3	519.0 ± 50.0 mm^3	38.99%	82.2%	191.9 mm^3	201.6 ± 19.1 mm^3	Day 1 (TV, mm^3) (Mean) [4, 7]: 195.8 mm^3; Day 1 (TV, mm^3) Average ± STDErr [4, 7]: 202.0 ± 18.8 mm^3; Day 23 (TV, mm^3) (Mean) [4, 6]: 517.4 mm^3; Day 23 (TV, mm^3) Average ± STDErr [4, 6]: 486.9 ± 34.6 mm^3; Day 23 (TV, mm^3) (Mean) [4, 7]: 598.3 mm^3; Day 23 (TV, mm^3) Average ± STDErr [4, 7]: 619.3 ± 69.6 mm^3; Day 1 (TV, mm3) (Mean) [3]: (166.7) mm3; Day 1 (TV, mm3) Average ± STDErr [3]: 167.7 ± 7.7 mm3; Day 19 (TV, mm3) (Mean) [3]: (299.2) mm3; Day 19 (TV, mm3) Average ± STDErr [3]: 290.3 ± 24.6 mm3; Percentage of tumor growth inhibition [3]: 87%
Comp-I: the VEGFR2 specific inhibitor represented by SEQ ID NO: 4; a VEGFR-2 binding 10Fn3 fibronectin based scaffold polypeptide (protein) GEVVAATPTSLLISWRHPHFPTRYYRITYGETGGNSPVQEFTVPLQPPTATISGLKPGVDYTITVYAVTDGRNGRLLSIPISINYRTEIDKPCQ	449.2 mm^3	444.6 ± 30.2 mm^3	inhibits Colo205 tumor growth to the same extent as the mTOR inhibitor Temsirolimus; also recorded: equally inhibited	235.25 mm^3	301.95 mm^3	325.42 mm^3	369.21 mm^3	403.32 mm^3	426.71 mm^3	455.84 mm^3	247.1 mm3	239.4 ± 18.3 mm3	(417.2) mm^3	413.5 ± 28.7 mm^3	(505.8) mm^3	502.5 ± 33.6 mm^3	53.03%	91.5%	183.4 mm^3	205.1 ± 20.9 mm^3	Day 1 (TV, mm^3) (Mean) [4, 7]: 207.0 mm^3; Day 1 (TV, mm^3) Average ± STDErr [4, 7]: 203.4 ± 18.7 mm^3; Day 23 (TV, mm^3) (Mean) [4, 6]: 460.5 mm^3; Day 23 (TV, mm^3) Average ± STDErr [4, 6]: 432.8 ± 23.6 mm^3; Day 23 (TV, mm^3) (Mean) [4, 7]: 492.9 mm^3; Day 23 (TV, mm^3) Average ± STDErr [4, 7]: 533.4 ± 47.9 mm^3; sensitivity of tumor growth, Comp-I vs. Bevacizumab (in words) ([4]; HT1080 model): tumor growth is more sensitive to Comp-1-mediated VEGFR-2 inhibition than to Bevacizumab-mediated VEGF inhibition; Day 1 (TV, mm3) (Mean) [3]: (166.2) mm3; Day 1 (TV, mm3) Average ± STDErr [3]: 167.4 ± 8.1 mm3; Day 19 (TV, mm3) (Mean) [3]: (293.1) mm3; Day 19 (TV, mm3) Average ± STDErr [3]: 289.4 ± 21.5 mm3; Percentage of tumor growth inhibition [3]: 89%
